Data set [1] can be described thus: dissolution in a lipid carrier when preparing a liquid formulation. Type of data set: physicochemical. To be noted: solution in a lipid carrier; compared with amorphous form.
Data set [2] is described as follows: sulfoxide formation in lipid solution. Type of data set: physicochemical. The following applies: formulated in lipid solution, in the absence of antioxidant; compared with salt form, e.g. ABT-263 bis-HCl.
For data set [3], the system named is small-cell lung cancer (SCLC) and lymphoid malignancies. The following applies: against SCLC and lymphoid malignancies; cited from earlier work.

Turning to `CC1(C)CCC(c2ccc(Cl)cc2)=C(CN2CCN(c3ccc(C(=O)NS(=O)(=O)c4ccc(N[C@H](CCN5CCOCC5)CSc5ccccc5)c(S(=O)(=O)C(F)(F)F)c4)cc3)CC2)C1` [crystalline ABT-263, N-(4-(4-((2-(4-chlorophenyl)-5,5-dimethyl-1-cyclohex-1-en-1-yl)methyl)piperazin-1-yl)benzoyl)-4-(((1R)-3-(morpholin-4-yl)-1-((phenylsulfanyl)methyl)propyl)amino)-3-((trifluoromethyl)sulfonyl)benzenesulfonamide], in data set [1], the dissolution behaviour result was “dissolves faster and has less tendency to form a gel during dissolution”.

`CC1(C)CCC(c2ccc(Cl)cc2)=C(CN2CCN(c3ccc(C(=O)NS(=O)(=O)c4ccc(N[C@H](CCN5CCOCC5)CSc5ccccc5)c(S(=O)(=O)C(F)(F)F)c4)cc3)CC2)C1` [ABT-263 free base, N-(4-(4-((2-(4-chlorophenyl)-5,5-dimethyl-1-cyclohex-1-en-1-yl)methyl)piperazin-1-yl)benzoyl)-4-(((1R)-3-(morpholin-4-yl)-1-((phenylsulfanyl)methyl)propyl)amino)-3-((trifluoromethyl)sulfonyl)benzenesulfonamide]: the “susceptibility to sulfoxide formation” value in data set [2] is recorded as “less susceptible to sulfoxide formation than ABT-263 in salt form”.

`CN(C)CC[C@H](CSc1ccccc1)Nc1ccc(S(=O)(=O)NC(=O)c2ccc(N3CCN(Cc4ccccc4-c4ccc(Cl)cc4)CC3)cc2)cc1[N+](=O)[O-]` [ABT-737, N-(4-(4-((4′-chloro-(1,1′-biphenyl)-2-yl)methyl)piperazin-1-yl)benzoyl)-4-(((1R)-3-(dimethylamino)-1-((phenylsulfanyl)methyl)propyl)amino)-3-nitrobenzene-sulfonamide]: in data set [3], the single-agent activity entry is on record as “single-agent activity”.

These data come from patent US8513243B2, “ABT-263 crystalline forms” (AbbVie Inc., priority 2009, dated 2013).
